Measured values published in patent US20230102554A1 (GB002, INC., priority 2019, published 2023).

Columns and labels:
[1] = molecular target: T1, Human PDGFRα, cytoplasmic domain (GST-PDGFRα) (Homo sapiens, UniProt P16234); experiment: Human PDGFRα biochemical inhibition assay (off-chip Mobility Shift Assay)
T1 construct: made in house

[2] = molecular target: T2, Human PDGFRβ, cytoplasmic domain (GST-PDGFRβ) (Homo sapiens, UniProt P09619); experiment: Human PDGFRβ biochemical inhibition assay (off-chip Mobility Shift Assay)
T2 construct: made in house
T2 sequence (P09619 with tags, fused parts or gaps): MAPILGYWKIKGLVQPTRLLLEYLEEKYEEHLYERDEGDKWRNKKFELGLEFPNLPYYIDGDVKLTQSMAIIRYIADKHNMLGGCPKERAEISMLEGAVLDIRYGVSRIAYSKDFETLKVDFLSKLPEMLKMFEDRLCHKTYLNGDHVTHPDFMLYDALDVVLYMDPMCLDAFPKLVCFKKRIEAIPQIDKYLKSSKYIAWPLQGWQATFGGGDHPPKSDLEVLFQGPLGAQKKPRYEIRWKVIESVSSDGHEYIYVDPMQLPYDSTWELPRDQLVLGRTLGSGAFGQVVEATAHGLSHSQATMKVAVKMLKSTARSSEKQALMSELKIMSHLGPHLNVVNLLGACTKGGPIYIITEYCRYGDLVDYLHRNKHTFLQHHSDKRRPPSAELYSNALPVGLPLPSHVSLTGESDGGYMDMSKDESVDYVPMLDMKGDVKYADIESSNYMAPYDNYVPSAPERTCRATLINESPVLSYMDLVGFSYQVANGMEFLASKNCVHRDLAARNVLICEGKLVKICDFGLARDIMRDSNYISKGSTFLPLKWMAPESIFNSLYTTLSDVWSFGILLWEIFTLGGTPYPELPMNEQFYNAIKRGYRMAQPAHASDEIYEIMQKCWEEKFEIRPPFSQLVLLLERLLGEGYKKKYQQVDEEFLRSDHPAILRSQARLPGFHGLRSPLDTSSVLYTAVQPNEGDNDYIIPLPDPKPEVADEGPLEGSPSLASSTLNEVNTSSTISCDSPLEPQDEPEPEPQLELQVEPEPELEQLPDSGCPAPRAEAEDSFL
Procedure, shortened: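 GST-tagged cytoplasmic domain (aa 557-1106) from baculovirus was incubated 1 h at room temperature with compound, CSKtide, ATP at Km and Mg²⁺ in HEPES buffer, pH 7.5. Phosphorylated and unphosphorylated peptide were separated by off-chip mobility shift, and the product ratio P/(P+S) gave percent inhibition.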

T1 sequence (P16234 550-1089 T674I): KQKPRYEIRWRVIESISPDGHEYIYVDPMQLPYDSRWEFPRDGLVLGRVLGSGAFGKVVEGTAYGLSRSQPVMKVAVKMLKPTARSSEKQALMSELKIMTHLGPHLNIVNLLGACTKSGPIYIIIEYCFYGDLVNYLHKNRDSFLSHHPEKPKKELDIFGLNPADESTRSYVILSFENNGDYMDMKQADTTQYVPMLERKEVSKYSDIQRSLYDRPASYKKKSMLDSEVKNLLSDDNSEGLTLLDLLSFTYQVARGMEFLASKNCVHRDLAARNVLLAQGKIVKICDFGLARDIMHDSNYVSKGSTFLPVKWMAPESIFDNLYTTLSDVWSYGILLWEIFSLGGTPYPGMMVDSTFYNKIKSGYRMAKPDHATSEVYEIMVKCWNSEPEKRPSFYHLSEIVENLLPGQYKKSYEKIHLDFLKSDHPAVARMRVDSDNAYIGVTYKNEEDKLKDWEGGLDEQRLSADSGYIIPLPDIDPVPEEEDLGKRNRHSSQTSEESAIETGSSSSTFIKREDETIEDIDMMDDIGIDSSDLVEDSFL

| SMILES | IC50 [1] [nM] | IC50 [2] [nM] |
| --- | --- | --- |
| CCn1cc2ncc(N[C@@H](C)c3cc(NC(=O)Cc4cncc(C(F)(F)F)c4)ccc3F)nc2n1 [Compound 685, (S)-N-(3-(1-((2-ethyl-2H-pyrazolo[3,4-b]pyrazin-6-yl)amino)ethyl)-4-fluorophenyl)-2-(5-(trifluoromethyl)pyridin-3-yl) acetamide] | < 300 | 300 to 1000 |
| CCn1cc2ncc(N[C@@H](C)c3cccc(NC(=O)c4cc(F)c(CN5CC6(COC6)C5)c(Cl)c4)c3)nc2n1 [Compound 490, (S)-4-((2-oxa-6-azaspiro[3.3]heptan-6-yl)methyl)-3-chloro-N-(3-(1-((2-ethyl-2H-pyrazolo[3,4-b]pyrazin-6-yl)amino)ethyl)phenyl)-5-fluorobenzamide] | < 300 | < 300 |
| C[C@H](Nc1cnc2cnn(C)c2n1)c1cccc(NC(=O)c2cnn(CCF)c2)c1 [Compound 154, (S)-1-(2-fluoroethyl)-N-(3-(1-((1-methyl-1H-pyrazolo[3,4-b]pyrazin-6-yl)amino)ethyl)phenyl)-1H-pyrazole-4-carboxamide] | < 300 | < 300 |
| CCn1cc2ncc(N[C@@H](C)c3cccc(NC(=O)c4ccc(N(C)C)nc4)c3)nc2n1 [Compound 377, (S)-6-(dimethylamino)-N-(3-(1-((2-ethyl-2H-pyrazolo[3,4-b]pyrazin-6-yl)amino)ethyl)phenyl)nicotinamide] | 300 to 1000 | 300 to 1000 |
| CCn1cc2ncc(N[C@@H](C)c3cc(NC(=O)Cc4cc(C)c(F)cn4)ccc3C)nc2n1 [Compound 687, (S)-N-(3-(1-((2-ethyl-2H-pyrazolo[3,4-b]pyrazin-6-yl)amino)ethyl)-4-methylphenyl)-2-(5-fluoro-4-methylpyridin-2-yl)acetamide] | < 300 | < 300 |
| C[C@H](Nc1cnc2cnn(C)c2n1)c1cc(NC(=O)c2cnn(C3CCC3)c2)ccc1F [Compound 213, (S)-1-cyclobutyl-N-(4-fluoro-3-(1-((1-methyl-1H-pyrazolo[3,4-b]pyrazin-6-yl)amino)ethyl)phenyl)-1H-pyrazole-4-carboxamide] | < 300 | < 300 |
| Cc1cc(C(=O)Nc2cccc([C@H](C)Nc3cnc4cnn(C)c4n3)c2)ccc1C(=O)OCC(C)C [Compound 263, isobutyl (S)-2-methyl-4-((3-(1-((1-methyl-1H-pyrazolo[3,4-b]pyrazin-6-yl)amino)ethyl)phenyl)carbamoyl)benzoate] | < 300 | 300 to 1000 |
| C=C(C)c1ncc(C(=O)Nc2cccc([C@H](C)Nc3cnc4cnn(C)c4n3)c2)cc1C [Compound 216, (S)-5-methyl-N-(3-(1-((1-methyl-1H-pyrazolo[3,4-b]pyrazin-6-yl)amino)ethyl)phenyl)-6-(prop-1-en-2-yl) nicotinamide] | < 300 | < 300 |
| CCn1cc2ncc(N[C@@H](C)c3cc(NC(=O)c4cc(F)c(CN5CC[C@@H](O)C5)c(Cl)c4)ccc3C)nc2n1 [Compound 521, 3-chloro-N-(3-((S)-1-((2-ethyl-2H-pyrazolo[3,4-b]pyrazin-6-yl)amino)ethyl)-4-methylphenyl)-5-fluoro-4-(((R)-3-hydroxypyrrolidin-1-yl)methyl) benzamide] | < 300 | < 300 |
| Cc1cc(C(=O)Nc2cccc([C@H](C)Nc3cnc4cnn(C)c4n3)c2)ccc1CN1CCOCC1 [Compound 209, (S)-3-methyl-N-(3-(1-((1-methyl-1H-pyrazolo[3,4-b]pyrazin-6-yl)amino)ethyl)phenyl)-4-(morpholinomethyl) benzamide] | < 300 | < 300 |
| CCn1cc2ncc(N[C@@H](C)c3cc(NC(=O)c4cnc(F)c(C)c4)ccc3C)nc2n1 [Compound 512, (S)-N-(3-(1-((2-ethyl-2H-pyrazolo[3,4-b]pyrazin-6-yl)amino)ethyl)-4-methylphenyl)-6-fluoro-5-methylnicotinamide] | < 300 | < 300 |
| C[C@H](Nc1cnc2cnn(C)c2n1)c1cccc(NC(=O)c2ccc(OC(F)F)nc2)c1 [Compound 118, (S)-6-(difluoromethoxy)-N-(3-(1-((1-methyl-1H-pyrazolo[3,4-6]pyrazin-6-yl)amino)ethyl)phenyl)nicotinamide] | < 300 | < 300 |
| CCn1cc2ncc(N[C@@H](C)c3cccc(NC(=O)c4ccc(CN5CC[C@H](F)C5)c(C)c4)c3)nc2n1 [Compound 493, N-(3-((S)-1-((2-ethyl-2H-pyrazolo[3,4-b]pyrazin-6-yl)amino)ethyl)phenyl)-4-(((S)-3-fluoropyrrolidin-1-yl)methyl)-3-methylbenzamide] | < 300 | < 300 |
| C[C@H](Nc1cnc2cnn(C)c2n1)c1cccc(NC(=O)c2cccc(S(C)(=O)=O)c2)c1 [Compound 226, (S)-N-(3-(1-((1-methyl-1H-pyrazolo[3,4-b]pyrazin-6-yl)amino)ethyl)phenyl)-3-(methylsulfonyl)benzamide] | < 300 | < 300 |
| Cc1cncc(C(=O)Nc2cccc([C@H](C)Nc3cnc4cnn(C5CCOC5)c4n3)c2)c1 (stereo partly drawn) [Compound 182, 5-methyl-N-(3-((1S)-1-((1-(tetrahydrofuran-3-yl)-1H-pyrazolo[3,4-b]pyrazin-6-yl)amino)ethyl)phenyl) nicotinamide] | < 300 | ≥ 1000 |
| CCn1cc2ncc(N[C@@H](C)c3cc(NC(=O)Cc4ccc(Cl)c(C)n4)ccc3C)nc2n1 [Compound 670, (S)-2-(5-chloro-6-methylpyridin-2-yl)-N-(3-(1-((2-ethyl-2H-pyrazolo[3,4-b]pyrazin-6-yl)amino)ethyl)-4-methylphenyl)acetamide] | < 300 | < 300 |
| Cc1cncc(C(=O)Nc2cccc([C@H](C)Nc3cnc4ccoc4c3)c2)c1 [Compound 604, (S)-N-(3-(1-(furo[3,2-b]pyridin-6-ylamino)ethyl)phenyl)-5-methylnicotinamide] | < 300 | 300 to 1000 |
| CCn1cc2ncc(N[C@@H](C)c3cccc(NC(=O)c4ccc(CN5CC[C@@H](O)C5)c(C)c4)c3)nc2n1 [Compound 482, N-(3-((S)-1-((2-ethyl-2H-pyrazolo[3,4-b]pyrazin-6-yl)annno)ethyl)phenyl)-4-(((R)-3-hydroxypyrrolidin-1-yl)methyl)-3-methylbenzamide] | < 300 | 300 to 1000 |
| Cc1cc2ncc(N[C@@H](C)c3cc(NC(=O)c4cnn(C5CCC5)c4)ccc3F)nc2s1 [Compound 613, (S)-1-cyclobutyl-N-(4-fluoro-3-(1-((6-methylthieno[2,3-b]pyrazin-3-yl)amino)ethyl)phenyl)-1H-pyrazole-4-carboxamide] | < 300 | < 300 |
| Cc1cncc(C(=O)Nc2cccc([C@H](C)Nc3cnc4ccc(C)cc4n3)c2)c1 [Compound 38, (S)-5-methyl-N-(3-(1-((7-methylquinoxalin-2-yl)amino)ethyl)phenyl)nicotinamide] | < 300 | < 300 |
| CCn1cc2ncc(N[C@@H](C)c3cccc(NC(=O)c4ccc(N5CCN(C)CC5)c(Cl)c4)c3)nc2n1 [Compound 361, (S)-3-chloro-N-(3-(1-((2-ethyl-2H-pyrazolo[3,4-b]pyrazin-6-yl)amino)ethyl)phenyl)-4-(4-methylpiperazin-1-yl)benzamide] | < 300 | 300 to 1000 |
| Cc1cncc(C(=O)Nc2cccc([C@H](C)Nc3cnc4[nH]c(=O)n(C)c4n3)c2)c1 [Compound 12, (S)-5-methyl-N-(3-(1-((3-methyl-2-oxo-2,3-dihydro-1H-imidazo[4,5-b]pyrazin-5-yl)amino)ethyl)phenyl)nicotinamide] | < 300 | < 300 |
| CCn1cc2ncc(N[C@@H](C)c3cc(NC(=O)Cc4cnc(C)c(F)c4)ccc3F)nc2n1 [Compound 706, (S)-N-(3-(1-((2-ethyl-2H-pyrazolo[3,4-b]pyrazin-6-yl)amino)ethyl)-4-fluorophenyl)-2-(5-fluoro-6-methylpyridin-3-yl) acetamide] | < 300 | ≥ 1000 |
| Cc1cnn(C(=O)Nc2cccc([C@H](C)Nc3cnc4cnn(C)c4n3)c2)c1 [Compound 168, (S)-4-methyl-N-(3-(1-((1-methyl-1H-pyrazolo[3,4-b]pyrazin-6-yl)amino)ethyl)phenyl)-1H-pyrazole-1-carboxamide] | < 300 | ≥ 1000 |
| CCn1cc2ncc(N[C@@H](C)c3cc(NC(=O)c4ccc(C(F)(F)F)nc4)cc(F)c3F)nc2n1 [Compound 491, (S)-N-(3-(1-((2-ethyl-2H-pyrazolo[3,4-b]pyrazin-6-yl)amino)ethyl)-4,5-difluorophenyl)-6-(trifluoromethyl)nicotinamide] | 300 to 1000 | 300 to 1000 |
| CCn1cc2ncc(N[C@@H](C)c3cc(NC(=O)c4ccc(OC5CCN(C)CC5)c(C(F)(F)F)c4)ccc3F)nc2n1 [Compound 431, (S)-N-(3-(1-((2-ethyl-2H-pyrazolo[3,4-b]pyrazin-6-yl)amino)ethyl)-4-fluorophenyl)-4-((1-methylpiperidin-4-yl)oxy)-3-(trifluoromethyl)benzamide] | < 300 | < 300 |
| CCn1cc2ncc(N[C@@H](C)c3cc(NC(=O)Cc4cncc(C(F)(F)F)c4)ccc3C)nc2n1 [Compound 692, (S)-N-(3-(1-((2-ethyl-2H-pyrazolo[3,4-b]pyrazin-6-yl)amino)ethyl)-4-methylphenyl)-2-(5-(trifluoromethyl)pyridin-3-yl)acetamide] | < 300 | < 300 |
| CCn1cc2ncc(N[C@@H](C)c3cc(NC(=O)Cc4ccc(C)cn4)ccc3F)nc2n1 [Compound 689, (S)-N-(3-(1-((2-ethyl-2H-pyrazolo[3,4-b]pyrazin-6-yl)amino)ethyl)-4-fluorophenyl)-2-(5-methylpyridin-2-yl) acetamide] | < 300 | ≥ 1000 |
| CCn1cc2ncc(N[C@@H](C)c3cc(NC(=O)Cc4cncc(Cl)c4)ccc3C)nc2n1 [Compound 673, (S)-2-(5-chloropyridin-3-yl)-N-(3-(1-((2-ethyl-2H-pyrazolo[3,4-b]pyrazin-6-yl)amino)ethyl)-4-methylphenyl)acetamide] | < 300 | < 300 |
